The values that follow come from patent publication US20260335388A1, “COMBINATION THERAPIES WITH ONCOLYTIC ADENOVIRUS AND TOPOISOMERASE I INHIBITORS OR PRODRUGS THEREOF” (priority 2022, published 2026).

The subject of one series is retinoblastoma cells. It counts as cell-based. Conditions: infection of retinoblastoma cells with VCN-01.
For another series, the system named is Y79 xenografts. In words: Ocular survival, Y79 intraocular xenografts (first study). It counts as in vivo, mouse. Conditions: control 37 days; P vs control: combination 0.0005, topotecan 0.062, standard of care 0.674, VCN-01 1 (FIG. 20A).
Series [1] deals with RBT-7 intracerebral tumors. Nature of the series: Antitumor activity in CNS-disseminated retinoblastoma. Conditions: control 22 days; P of combination vs control 0.0004, topotecan 0.0072, standard of care 0.0040, VCN-01 0.0372; animals dying of toxicity excluded (FIG. 22C). Format: in vivo, mouse. The source says: Antitumor activity in CNS-disseminated retinoblastoma. A model of retinoblastoma dissemination was established in the leptomeninges of the CNS. Anesthetized mice were restrained in a stereotactic apparatus (Stoelting, Wood Dale, IL, USA). Using a mouse brain atlas (Paxinos and Franklin, “The mouse brain in stereotaxic coordinates,” San Diego: Academic Press; 2001), the coordinates of the fourth ventricle were located and the surface of the skull was drilled. Then, […] (RBT-7) in 10 µL matrigel was injected with a dull 22G needle attached to a 50 µL syringe (Hamilton, Bonaduz, Switzerland). One week later, treatments were started with VCN-01 (3×10^9 vp in 20 µL vehicle, intraventricular, day 8), topotecan (0.6 mg/kg, i.p., days 8-12), SoC chemotherapy ([…], 40 mg/kg, i.p., day 8, and etoposide, 6 mg/kg, i.p., days 8-10) or the combination of VCN-01 and chemotherapies. The control group received the vehicle of VCN-01 (intraventricular). Animals achieved experimental endpoints upon deterioration of condition or 20% weight loss. Brains collected at endpoint were embedded in paraffin and stained with hematoxylin and eosin (H&E), human nuclei (MAB4383, 1:200, Millipore), viral protein E1A (ab33183, 1:200, Abcam) and CD45 (leukocyte common antigen; 70257, 1:200, Cell Signaling).

In a further series the test system is CDKN1A. Format: cell-based, human. Conditions: RBT-7 cells pre-infected with VCN-01; topotecan 2 μM (FIG. 17F). On the procedure: To assess the expression of genes involved in the cell cycle, 6-well culture plates containing 2×10^6 retinoblastoma cells were used. VCN-01 was added at 50 MOI for 48 h, followed by the addition of topotecan (2 μM), […] (12.5 μM) or culture medium. The cell pellets were collected 24 h later. The samples were plated in the TaqMan® Array of Human Cyclins & Cell Cycle Regulation (Thermo Fisher Scientific). This array contains 92 assays of cell cycle-associated genes and assays of GAPDH, 18S, HPRT1 and GUSB as endogenous control genes. the threshold cycle (Ct) value ≥35 was established as absence of expression. The mean expression value of the controls was used to normalize gene expression values. The thresholds for upregulation and downregulation were 2^−ΔΔCt≥2.0 and 2^−ΔΔct≤0.5, respectively (Livak and Schmittgen, “Analysis of relative gene expression data using real-time quantitative PCR and the 2 (−Delta Delta C(T)) Method,” Methods 2001; 25(4):402-8).
SYBR primers were CDKN1A (Forward 5′-GGACAGGAGAGGAAGACCATGT-3′ (SEQ ID NO: 15), Reverse 5′-TGGAGTGGTAGAATTCTGTCATGC-3′ (SEQ ID NO: 16) and CDK6 (Forward 5′-CCAGGCAGGCTTTTCATTCA-3′ (SEQ ID NO: 17), Reverse 5′-AGGTCCTGGAAGTATGGGTG-3′ (SEQ ID NO: 18).

In series [2] the test system is Y79 cells. In words: Viral production assay. It counts as cell-based. Conditions: Y79 pre-infected with 500 MOI; topotecan 2 μM (FIG. 18F). Here is the method:
Viral production assay. Y79 cells were infected with a concentration of 500 multiplicity of infection (MOI; i.e., transducing units of virus per cell), which was sufficient to achieve 80% to 100% infectivity. After 4 h, the cells were washed three times with PBS, fresh medium was added, and the cells were incubated with or without topotecan (2 μM). At time points 30, 48 and 72 h post-infection, the cell pellets were collected and exposed to three rounds of freeze-thaw lysis. Viral titers were determined in the pellets in triplicate, following an anti-hexon staining-based method in HEK293 cells (Cascallo et al., 2007).

Series [3] deals with Y79 cells. Nature of the series: Cell cycle of retinoblastoma cells (propidium iodide cytometry). It counts as cell-based. Here is the method: Then, the cells were collected and fixed in 70% ethanol for 2 h. The propidium iodide (PI)-based assay FxCycle™ PI/RNase (Thermo Fisher Scientific) was used as staining solution prior to quantification by flow cytometry (NovoCyte).

A further series deals with E1A. Format: in vivo, mouse.
For series [4], the system named is HSJD-ES-033 Ewing sarcoma. Nature of the series: Antitumor activity in Ewing sarcoma PDX HSJD-ES-033. Conditions: single treatment (FIG. 24E,G). Format: in vivo, mouse. On the procedure:
Patient-derived xenograft (PDX) of Ewing sarcoma (pediatric solid tumor) were implanted subcutaneously into athymic nude mice. Tumor model was HSJD-ES-033. Upon engraftment (tumor volumes ranging 100-500 mm^3), combination treatment in which topotecan was administered systemically (intraperitoneal) at a concentration of 0.6 mg/kg/day, on Days 1, 2, 3, 4 and 5, and a single dose of 3×10^9 vp/tumor VCN-01 was administered intratumorally on Day 1, was compared to either of the treatments alone.
Antitumor activity in extracranial pediatric solid tumors. 5-10 mm^3 fresh fragments of Ewing sarcoma or neuroblastoma PDX were implanted in both flanks of mice. Upon s.c. engraftment (tumor volume 150-200 mm^3), mice received topotecan (0.6 mg/kg, i.p., days 1-5), VCN-01 (3×10^9 vp in 20 µL vehicle, intratumoral, day 1), or the combination. In two additional groups, an alternative topoisomerase 1 inhibitor, irinotecan (10 mg/kg, i.p., on days 1-5) we used in place of topotecan. Upon completion of treatments, tumor volumes were followed until endpoint (1500 mm^3), or until day 80.

For another series, the system named is Y79 tumors. Format: in vivo, mouse. Conditions: systemic drug after intratumoral VCN-01 3×10E^9 vp/tumor; 5 or 15 days (FIGS. 2A-B).
Series [5] deals with Y79 cells and primary retinoblastoma cultures. It counts as cell-based.

Method for Y79 xenografts: Antitumor activity in retinoblastoma. […] For ocular tumors, treatments were started at day 8 after inoculation (when tumors were appreciable by fundus examination).
In a first study, one dose of VCN-01 (3×10^8 vp in 2 μL vehicle, intravitreal, day 15), therapeutic schedules of topotecan or standard of care (SoC) retinoblastoma chemotherapy, or their combinations, was administered in the Y79 intraocular xenograft. For topotecan, mice received 0.6 mg/kg i.p. injections on days 8-12 and 29-33. […] 40 mg/kg, on days 8 and 29, and etoposide 6 mg/kg, on days 8-10 and 29-31.

As for `CC[C@@]1(O)C(=O)OCc2c1cc1n(c2=O)Cc2cc3c(CN(C)C)c(O)ccc3nc2-1` [Topotecan, topotecan], the “cell sensitivity to drug after VCN-01 infection” value in the series with retinoblastoma cells is given as “decreased cell sensitivity”. In addition, the median ocular survival with Y79 xenografts was 58 days. Besides, in series [1], the median survival stood at 28 days. Also, the “increase in expression of CDKN1A” value in the series on CDKN1A was found to be 10 fold. In addition, the viral production entry in the series on Y79 cells [2] was “did not increase viral production”. Also, in the series with Y79 cells [3] (24 h (FIG. 17A)), the “percentage of cells in S-phase” value is reported as “increased the percentage of cells in S-phase”. In addition, the “duration of S-phase effect” value in the series with Y79 cells [3] (topotecan 2 μM (FIG. 17B,C)) was “at least 48 h”. Also, in the series on E1A (5-day topotecan treatment, VCN-01-pretreated tumors, vs saline, […] or hydroxyurea (FIG. 18I)), the “number of E1A-positive cells” value was “highest number of E1A-positive cells”. The “level of E1A protein expression” value with E1A (5-day topotecan treatment, VCN-01-pretreated tumors, vs saline, […] or hydroxyurea (FIG. 18J)) is given as “highest level of E1A protein expression”. Besides, in the series on E1A (systemic drug after intratumoral VCN-01, 5 or 15 days (FIGS. 4A-C)), the “VCN-01 activity (E1A) in tumors” value was “enhances VCN-01 activity”. The “response of xenograft to single treatment” value in [4] is listed as “highly resistant”. In the series with Y79 tumors, the “VCN-01 genome content in tumors” value is on record as “increases VCN-01 genome content”. Besides, in series [5] (cells pre-infected with AdTLRGDK (FIG. 18E, FIG. 19A)), the “transgene expression, virus first” value was “increased transgene expression”. Further, the “viral transduction, drug first” value in [5] (drug exposure before viral infection (FIG. 18E)) is recorded as “did not enhance viral transduction”.
